For 26 compounds, IC50 results are on record in patent publication US10508085B2, “Compounds and methods for IDO and TDO modulation, and indications therefor” (Plexxikon Inc., priority 2016, dated 2019).

Read-outs that look alike come from different tables or passages of the source.

For experiment [1], the target named is T1, Human Indoleamine 2,3-dioxygenase (IDO) (Homo sapiens, UniProt P14902).
T1 construct: His tag (N); made in house; host or cells: E. coli
Briefly: Human IDO enzymatic assay (kynurenine level). The experiment is classed as biochemical. In a few lines: (§1)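 Kynurenine formed is measured after TCA quench and 50 °C hydrolysis, with % inhibition against full-reaction and no-enzyme controls (5% DMSO). IDO: 6 nM enzyme, 10 μM L-Trp, 5 μM methylene blue, 20 min; TDO: 1 nM, 350 μM L-Trp, 0.4 μM methylene blue, 70 min; both pH 6.5, room temp, E. coli-expressed His-tagged.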

The target in experiment [2] is T2, Human Tryptophan 2,3-dioxygenase (TDO) (Homo sapiens, UniProt P48775).
T2 construct: His tag (N); made in house; host or cells: E. coli
T2 sequence (P48775 whole entry): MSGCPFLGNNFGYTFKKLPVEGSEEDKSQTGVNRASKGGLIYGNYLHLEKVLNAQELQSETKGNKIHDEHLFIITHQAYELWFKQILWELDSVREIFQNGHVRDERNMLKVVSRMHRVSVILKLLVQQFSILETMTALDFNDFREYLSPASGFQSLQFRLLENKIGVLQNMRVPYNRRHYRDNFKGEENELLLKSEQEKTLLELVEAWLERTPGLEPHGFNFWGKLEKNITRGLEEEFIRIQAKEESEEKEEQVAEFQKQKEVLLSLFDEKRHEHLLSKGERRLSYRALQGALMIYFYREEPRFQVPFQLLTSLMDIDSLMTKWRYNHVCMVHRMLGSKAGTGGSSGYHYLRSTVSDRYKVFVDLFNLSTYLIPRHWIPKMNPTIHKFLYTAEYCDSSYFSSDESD
Briefly: Human TDO enzymatic assay (kynurenine level). Format: biochemical. In a few lines: as §1

Experiment [3] concerns the target T3, human IDO (IDO1-expressing HEK293 cells) (Homo sapiens, UniProt P14902).
T3 construct: expressed in transfected cells
Briefly: Cell based kynurenine assay, IDO1-expressing HEK293 cell clones. The note with it: IDO1-expressing HEK293 cells, 24 hours incubation; geometric mean; read-out: HEK293 IDO1 Kynurenine GMean IC50 (μM) (Cellular Assay). The protocol:
(§2) Determine Inhibitor Activity Against IDO or TDO in Cell Based Kynurenine Assay
(§3) IDO1-expressing or TDO-expressing HEK293 cell clones are generated upon stable transfection of plasmids expressing human IDO or human TDO under the control of CMV promoter. Cells are selected in DMEM media supplemented with 10% fetal bovine serum and 1 mg/ml G418 at 37° C. in a humidified incubator supplied with 5% CO2. The assays are performed as follows.
(§4) Cells were seeded in a 96 well plate in 50 μL of culture media at a density of 2.5×10^4 per well. Serial dilutions of compounds (in total volume of 50 μL culture media) are added into cells. 4 wells containing 0.2% DMSO treated cells serve as high controls and 4 wells containing media only with 0.2% DMSO serve as low controls. After 24 hours of incubation, the supernatant was transferred to a 384 well reaction plate and the kynurenine level determined. The percentage inhibition at individual concentrations relative to high and low controls is calculated. The data is analyzed by using nonlinear regression to generate IC50 values.

For experiment [4], the target named is T4, human TDO (TDO-expressing HEK293 cells) (Homo sapiens, UniProt P48775).
T4 construct: expressed in transfected cells
T4 sequence (P48775 whole entry): as above
The experiment is described as follows: Cell based kynurenine assay, TDO-expressing HEK293 cell clones. The protocol: as §2, §3, §4

[5] abbreviates: 6 nM IDO, 10 μM L-Trp, geometric mean, read-out: IDO1 GMean: IC50 (μM) (Biochemical Assay).
The mark [6] stands for this setting: 1 nM TDO, 350 μM L-Trp, geometric mean, read-out: TDO GMean: IC50 (μM) (Biochemical Assay).
[7] abbreviates: TDO-expressing HEK293 cells, 24 hours incubation, geometric mean, read-out: HEK293 TDO Kynurenine GMean IC50 (μM) (Cellular Assay).
[8] abbreviates: biochemical assay, comparative examples, 4,6 versus 5,7 indazole, read-out: IDO1.
Setting [9] is: biochemical assay, comparative examples, 4,6 versus 5,7 indazole, read-out: TDO.
Where [10] appears, read: cellular assay, HEK293, 24 hours, comparative examples, read-out: hTDO.

T3 sequence (P14902 whole entry): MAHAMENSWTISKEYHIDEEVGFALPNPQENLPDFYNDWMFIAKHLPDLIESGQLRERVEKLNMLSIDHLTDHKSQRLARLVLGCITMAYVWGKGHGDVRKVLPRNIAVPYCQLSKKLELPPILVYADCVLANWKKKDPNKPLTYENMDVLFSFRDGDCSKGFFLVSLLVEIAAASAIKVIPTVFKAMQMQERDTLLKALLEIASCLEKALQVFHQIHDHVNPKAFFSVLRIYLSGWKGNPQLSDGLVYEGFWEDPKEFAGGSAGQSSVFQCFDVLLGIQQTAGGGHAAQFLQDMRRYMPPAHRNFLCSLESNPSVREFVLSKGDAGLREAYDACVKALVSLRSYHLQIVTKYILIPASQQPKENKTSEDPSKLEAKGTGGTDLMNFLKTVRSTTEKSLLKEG
T1 sequence (P14902 whole entry): as above

On to `CC(C)(C)OC(=O)N1CCC(C(C)(C)C(O)c2cc(Cl)cc3cn[nH]c23)CC1` (racemic) [Compound P-0163, tert-butyl 4-(1-(5-chloro-1H-indazol-7-yl)-1-hydroxy-2-methylpropan-2-yl)piperidine-1-carboxylate], for which the IC50 in experiment [1] (setting [5]), in experiment [2] (setting [6]), in experiment [3] and in experiment [4] (setting [7]) was 0.0001 to 10 µM in each case.
`OC(c1c(F)c(Cl)cc2cn[nH]c12)C12CCC(CC1)CC2` (racemic) [Compound P-0294, bicyclo[2.2.2]octan-1-yl(5-chloro-6-fluoro-1H-indazol-7-yl)methanol]: the IC50 in experiment [1] (setting [5]), in experiment [2] (setting [6]), in experiment [3] and in experiment [4] (setting [7]) was 0.0001 to 10 µM each time.
Take `OC(c1cccnc1)c1cc(Cl)cc2cn[nH]c12` (stereo not drawn) [Compound P-0001, (5-chloro-1H-indazol-7-yl)(pyridin-3-yl)methanol]: the IC50 in experiment [1] (setting [5]) is 0.0001 to 10 µM; in experiment [2] (setting [6]) it was 0.0001 to 10 µM; in experiment [3], greater than 10 µM; in experiment [4] (setting [7]), greater than 10 µM.
On to `OC(c1cc(Cl)cc2cn[nH]c12)C1CCCCC1` (stereo not drawn) [Compound P-0002, (5-chloro-1H-indazol-7-yl)(cyclohexyl)methanol], for which the IC50 in experiment [1] (setting [5]), in experiment [2] (setting [6]), in experiment [3] and in experiment [4] (setting [7]) was 0.0001 to 10 µM throughout.
Take `OC(c1cc(Cl)cc2cn[nH]c12)C1(F)CCCCC1` (stereo not drawn) [Compound P-0004, (5-chloro-1H-indazol-7-yl)(1-fluorocyclohexyl)methanol]: the IC50 in experiment [1] (setting [5]), in experiment [2] (setting [6]), in experiment [3] and in experiment [4] (setting [7]) was 0.0001 to 10 µM each time.
As for `OC(c1cc(Cl)cc2cn[nH]c12)C1CCCC1` (stereo not drawn) [Compound P-0005, (5-chloro-1H-indazol-7-yl)(cyclopentyl)methanol], the IC50 in experiment [1] (setting [5]), in experiment [2] (setting [6]), in experiment [3] and in experiment [4] (setting [7]) was 0.0001 to 10 µM each time.
On to `CC1(C(O)c2cc(Cl)cc3cn[nH]c23)CCCCC1` (stereo not drawn) [Compound P-0006, (5-chloro-1H-indazol-7-yl)(1-methylcyclohexyl)methanol], for which the IC50 in experiment [1] (setting [5]), in experiment [2] (setting [6]), in experiment [3] and in experiment [4] (setting [7]) was 0.0001 to 10 µM in each case.
As for `OC(CC1CCCCC1)c1cc(Cl)cc2cn[nH]c12` (stereo not drawn) [Compound P-0007, 1-(5-chloro-1H-indazol-7-yl)-2-cyclohexylethan-1-ol], the IC50 in experiment [1] (setting [5]), in experiment [2] (setting [6]), in experiment [3] and in experiment [4] (setting [7]) was 0.0001 to 10 µM throughout.
As to `CC(C)(C1CCCCC1)C(O)c1cc(Cl)cc2cn[nH]c12` (stereo not drawn) [Compound P-0008, 1-(5-chloro-1H-indazol-7-yl)-2-cyclohexyl-2-methylpropan-1-ol], the IC50 in experiment [1] (setting [5]), in experiment [2] (setting [6]), in experiment [3] and in experiment [4] (setting [7]) was 0.0001 to 10 µM in each case.
For the compound `OC(CCC1CCCCC1)c1cc(Cl)cc2cn[nH]c12` (stereo not drawn) [Compound P-0009, 1-(5-chloro-1H-indazol-7-yl)-3-cyclohexylpropan-l-ol], the IC50 in experiment [1] (setting [5]) is 0.0001 to 10 µM; in experiment [2] (setting [6]), 0.0001 to 10 µM; in experiment [3], 0.0001 to 10 µM; in experiment [4] (setting [7]) it was greater than 10 µM.
`Cc1ccc2cn[nH]c2c1C(O)C1(C)CCCCC1` (stereo not drawn) [Compound P-0015, (6-methyl-1H-indazol-7-yl)(1-methylcyclohexyl)methanol]: the IC50 in experiment [1] (setting [5]), in experiment [2] (setting [6]) and in experiment [3] was 0.0001 to 10 µM throughout.
Turning to `CC(C)(C)OC(=O)N1CCC2(CC1)CC(O)(c1cc(Cl)cc3cn[nH]c13)C2` [Compound P-0019, tert-butyl 2-(5-chloro-1H-indazol-7-yl)-2-hydroxy-7-azaspiro[3.5]nonane-7-carboxylate], the IC50 in experiment [3] is greater than 10 µM.
Consider `OC1(c2cc(Cl)cc3cn[nH]c23)CC2(CCNCC2)C1` [Compound P-0020, 2-(5-chloro-1H-indazol-7-yl)-7-azaspiro[3.5]nonan-2-ol], for which the IC50 in experiment [2] (setting [6]) is greater than 200 µM; in experiment [3], greater than 10 µM; in experiment [4] (setting [7]), greater than 10 µM.
`CS(=O)(=O)N1CCC(O)(c2cc(Cl)cc3cn[nH]c23)CC1` [Compound P-0023, 4-(5-chloro-1H-indazol-7-yl)-1-(methylsulfonyl)piperidin-4-ol]: in experiment [3], the IC50 was greater than 10 µM.
Still for that read-out and setting: with `CS(=O)(=O)N1CC(O)(c2cc(Cl)cc3cn[nH]c23)C1` [Compound P-0024, 3-(5-chloro-1H-indazol-7-yl)-1-(methylsulfonyl)azetidin-3-ol] the figure was greater than 10 µM.
For `O=S1(=O)CC2(CC(O)(c3cc(Cl)cc4cn[nH]c34)C2)C1` [Compound P-0056, 6-(5-chloro-1H-indazol-7-yl)-6-hydroxy-2-thiaspiro[3.3]heptane 2,2-dioxide], the results for the IC50 in experiment [1] (setting [5]) and in experiment [3] were 10 to 100 µM and greater than 10 µM, respectively.
Consider `OC(c1ccccc1)c1cccc2cncn12` (stereo not drawn) [Compound P-0057, imidazo[1,5-a]pyridin-5-yl(phenyl)methanol], for which the IC50 in experiment [1] (setting [5]) is 0.0001 to 10 µM; in experiment [2] (setting [6]), 0.0001 to 10 µM; in experiment [3], greater than 10 µM.
As for `CC(C)(C1CCN(C(=O)NCc2cccnc2)CC1)[C@H](O)c1cc(Cl)cc2cn[nH]c12` [Compound P-0679, (S)-4-(1-(5-chloro-1H-indazol-7-yl)-1-hydroxy-2-methylpropan-2-yl)-N-(pyridin-3-ylmethyl)piperidine-1-carboxamide], the IC50 in experiment [1] (setting [5]) and in experiment [2] (setting [6]) was 0.0001 to 10 µM throughout.
As to `CC(C)(C1CCN(C(=O)NCc2cnccn2)CC1)[C@H](O)c1cc(Cl)cc2cn[nH]c12` [Compound P-0680, (S)-4-(1-(5-chloro-1H-indazol-7-yl)-1-hydroxy-2-methylpropan-2-yl)-N-(pyrazin-2-ylmethyl)piperidine-1-carboxamide], the IC50 in experiment [1] (setting [5]) and in experiment [2] (setting [6]) was 0.0001 to 10 µM each time.
For `CC(C)(C1CCN(C(=O)NCc2ccnnc2)CC1)[C@H](O)c1cc(Cl)cc2cn[nH]c12` [Compound P-0681, (S)-4-(1-(5-chloro-1H-indazol-7-yl)-1-hydroxy-2-methylpropan-2-yl)-N-(pyridazin-4-ylmethyl)piperidine-1-carboxamide], the IC50 in experiment [1] (setting [5]) and in experiment [2] (setting [6]) was 0.0001 to 10 µM each time.
As to `OC(c1cc(Cl)cc2[nH]ncc12)C1CCCCC1` (stereo not drawn) [drawing 811], the values for the IC50 in experiment [1] (setting [8]), in experiment [2] (setting [9]) and in experiment [4] (setting [10]) were 3.25 µM, 6.06 µM and 0.05 µM, respectively.
Regarding `COC12CCC(C(O)c3cc(Cl)cc4[nH]ncc34)(CC1)CC2` (stereo not drawn) [drawing 813], the IC50 worked out at 6.6 µM in experiment [1] (setting [8]), 0.16 µM in experiment [2] (setting [9]) and 0.17 µM in experiment [4] (setting [10]).
Consider `CC(C)(C1CCN(S(C)(=O)=O)CC1)C(O)c1cc(Cl)cc2[nH]ncc12` (stereo not drawn) [drawing 815], for which the values for the IC50 in experiment [1] (setting [8]), in experiment [2] (setting [9]) and in experiment [4] (setting [10]) were 0.7 µM, 0.1 µM and 0.01 µM, respectively.
Taken in the same sequence, the figures for `OC1(c2cc(Cl)cc3cn[nH]c23)CC2(CCC2)C1` [drawing 818] were 0.14 µM, 0.04 µM and 2.94 µM.
Taken in the same sequence, the figures for `OC1(c2cc(Cl)cc3[nH]ncc23)CC2(CCC2)C1` [drawing 819] were 22 µM, 0.04 µM and 0.03 µM.
Taken in the same sequence, the figures for `OC1(c2cc(Cl)cc3[nH]ncc23)CC2(CCOCC2)C1` [drawing 821] were no less than 200 µM, 0.18 µM and 0.57 µM.
